Experiments:
[1] = system: ESC cell lines (H9, AND-1, AND-2, and SHEF-1); details: monolayer cultures on Matrigel coated flasks, before sorting; cited from earlier work
HADC100 ESC = test: Gene expression of ES-MSC in monolayer culture; format: cell-based, human; details: comparison of ALK5 inhibitors
Experimental: An overview of the differentiation process is provided in FIG. 1, panel K. To create cell clusters or embryoid bodies of uniform size, ESCs were removed from CellStart culture using Accutase® for 2-5 minutes until single cells were observed. Cells (2.5-3×10^5 cells per ml) were suspended in StemPro human ESC serum free medium (ThermoFisher) with 10 μM Y-27632 (EMD Chemicals, Gibbstown, NJ) and 40 ng/ml FGF (Life Technologies, Carlsbad, CA) in a 125 ml spinner culture flask (Corning Inc., Corning, NY) on a magnetic stirrer (CimarecTM Biosystem Slow-Speed Stirrer, ThermoFisher) at 70 rpm for 24 hours at 37° C. with 5% CO2 to form small cell clusters (minimum total cells was 7.5×10^6 in 30 ml). After 24 hours, the cell clusters were suspended at 2.5-3×10^5 cells per ml in ultra-low adherent 6 well plates (Corning) in […] free medium (ThermoFisher) supplemented with 2 mM L-glutamine (ThermoFisher Scientific), 50 μg/ml Ascorbic acid (Stemcell Technologies, Vancouver, Canada) and 1.8 μl/ml ITS-G (100× Insulin-Transferrin-Selenium; ThermoFisher); termed as “complete SP-34 medium”. […] Expression of the following genes was quantified POU5F1/OCT4 and SOX2 (for pluripotency); FOXA1 and SOX17 (for endoderm); NES and PAX6 (for ectoderm); NKX2-5, MSX1, NCAM1, and SOX9 (for mesoderm); ITGB1/CD29 (for MSC phenotype); and COL1A1, COL2A1, COL10A1, COMP, ACAN, and SOX9 and RUNX2 (for chondrogenesis). […]

HUES9 ESC = details: 10 μM SB431542, fibronectin, monolayer with 10% FBS; cited from earlier work
H9 ESC = test: Gene expression profiling of ES-MSC relative to undifferentiated ESC; format: cell-based, human
Experimental: An overview of the differentiation process is provided in FIG. 1, panel K. To create cell clusters or embryoid bodies of uniform size, ESCs were removed from CellStart culture using Accutase® for 2-5 minutes until single cells were observed. Cells (2.5-3×10^5 cells per ml) were suspended in StemPro human ESC serum free medium (ThermoFisher) with 10 μM Y-27632 (EMD Chemicals, Gibbstown, NJ) and 40 ng/ml FGF (Life Technologies, Carlsbad, CA) in a 125 ml spinner culture flask (Corning Inc., Corning, NY) on a magnetic stirrer (CimarecTM Biosystem Slow-Speed Stirrer, ThermoFisher) at 70 rpm for 24 hours at 37° C. with 5% CO2 to form small cell clusters (minimum total cells was 7.5×10^6 in 30 ml). After 24 hours, the cell clusters were suspended at 2.5-3×10^5 cells per ml in ultra-low adherent 6 well plates (Corning) in […] free medium (ThermoFisher) supplemented with 2 mM L-glutamine (ThermoFisher Scientific), 50 μg/ml Ascorbic acid (Stemcell Technologies, Vancouver, Canada) and 1.8 μl/ml ITS-G (100× Insulin-Transferrin-Selenium; ThermoFisher); termed as “complete SP-34 medium”. […] Total RNA was extracted from using the RNeasy kit as recommended by the manufacturer (QIAGEN, Valencia, CA). The High-Capacity cDNA Reverse Transcription Kit (Applied Biosystems, Foster City, California) kit was used to make cDNA and the following verified primer/probe assays were purchased from Applied Biosystems. Expression of the following genes was quantified POU5F1/OCT4 and SOX2 (for pluripotency); FOXA1 and SOX17 (for endoderm); NES and PAX6 (for ectoderm); NKX2-5, MSX1, NCAM1, and SOX9 (for mesoderm); ITGB1/CD29 (for MSC phenotype); and COL1A1, COL2A1, COL10A1, COMP, ACAN, and SOX9 and RUNX2 (for chondrogenesis). Gene expression was normalized to GAPDH as previously reported. Undifferentiated ESC served as a baseline for relative changes in gene expression in differentiated ES-MSC cells. Differentiated ES-MSC cells in monolayer served as baseline for changes in gene expression in pellets or hydrogel constructs.

HADC 100 ES-MSC = test: Chondrogenic gene expression of pellets relative to monolayer controls; format: cell-based, human; details: HADC 100 ES-MSC pellets
Experimental: (§1) Monolayer-expanded ES-MSC (passage 2-5) were detached using Accutase® and 0.5×10^6 cells in 0.5 ml of chondrogenic medium were centrifuged at 900 rpm (~770 G) for 5 minutes to form high-density pellets. At least 5-6 pellets, for each ES-MSC condition, were cultured in serum-free chondrogenic medium consisting of Dulbecco's Modified Eagle Medium (Mediatech Inc., Manassas, VA), 1×ITS supplement (Sigma-Aldrich, St. Louis, MO), 100 nM Dexamethasone (Sigma), 1.25 mg/ml human serum albumin (Bayer, Leverkusen, Germany), 100 μM ascorbic acid 2-phosphate (Sigma), 1% penicillin/streptomycin/gentamycin (PSG, Gibco, Carlsbad, CA), and 10 ng/ml TGFβ3 (PeproTech, Rocky Hill, NJ). Pellets for ex vivo implantation were cultured for 3 days before implantation; pellets for histologic or gene expression analysis were maintained in culture for 3 weeks with media changes every 3 to 4 days.
(§2) Total RNA was extracted from using the RNeasy kit as recommended by the manufacturer (QIAGEN, Valencia, CA). […] Expression of the following genes was quantified POU5F1/OCT4 and SOX2 (for pluripotency); FOXA1 and SOX17 (for endoderm); NES and PAX6 (for ectoderm); NKX2-5, MSX1, NCAM1, and SOX9 (for mesoderm); ITGB1/CD29 (for MSC phenotype); and COL1A1, COL2A1, COL10A1, COMP, ACAN, and SOX9 and RUNX2 (for chondrogenesis). […]

H9 ES-MSC [2] = test: as above; format: cell-based, human
Experimental: as §1, §2

H9 ES-MSC [3] = test: Pellet culture chondrogenesis, histology and immunohistochemistry; format: cell-based, human; details: 3 weeks, Safranin-O, collagen type I and II
Experimental: as §1
Cell pellets and explants were fixed in Z-Fix (3.7% formaldehyde, Anatech Ltd., Battle Creek, MI), processed for embedding in paraffin, and cut into 4 μm-thick sections. Sections were stained with Safranin-O and Fast Green to visualize glycosaminoglycan distribution in the tissues. Alzarin Red S staining was used to detect the presence of mineralized matrix.
For assessment of collagen types I and II, sections were pretreated with pepsin (Digest-All 3, Thermo Fisher Scientific) for 9 minutes at 37° C. in a humid chamber before incubation at 4° C. for 12 to 16 hours with the following primary antibodies: rabbit anti-human collagen type I antibody (Ab 34710, Abcam, Cambridge, MA) 1 μg/ml; or mouse anti-human collagen type II (II-II6B3, Hybridoma Bank, University of Iowa) 2 μg/ml. For color development, the ImmPRESS secondary DAB (brown) or AP (red) kits (Vector Laboratories, Burlingame, CA) was used. Isotype controls were used to monitor non-specific staining.

ES-MSC microspheroids = test: Microspheroid building chamber neo-cartilage formation; format: cell-based, human; details: 3 weeks in chamber
Text: Using a microspheroid building block approach, ES-MSC derived from treatment with ALK-5 inhibitor SB525334, as described in Example 1, were used to produce bone and cartilage (osteochondral) tissues. […] The OC tissue unit was implanted into an ex vivo model to develop biphasic tissue with an upper cartilage and lower calcified cartilage layer (FIG. 11, panels J-M). Both upper and lower tissues were Safranin O and collagen type II positive (FIG. 11, panels J-K), while the lower tissue producing calcified neo tissue (FIG. 11, panel L; von Kossa positive) and osteopontin (FIG. 11, panel M).

[4] = ES-MSC relative to undifferentiated ESC

Compound | CD73+CD90+CD34− cell population [1] [%] | generating mesoderm markers (NCAM1, SOX9) and increasing COL2A1 expression (HADC100 ESC) | enrichment for MSC markers CD44, CD73, CD146, and CD166 (HUES9 ESC) | expression of SOX9 and COL2A1 (chondroprogenitor phenotype) (H9 ESC; [4]) | expression of mesoderm specific markers (NCAM1, MSX1, NKX2-5) and MSC marker (ITGB1) (H9 ESC; [4]) | expression of pluripotent markers POU5F1 (OCT4) and SOX2 (H9 ESC; H9 ES-MSC relative to undifferentiated ESC) | chondrogenic genes (COL2A1, ACAN, COMP and SOX9) relative to monolayer controls (HADC 100 ES-MSC) | chondrogenic genes (COL2A1, ACAN, COMP and SOX9) relative to monolayer controls (H9 ES-MSC [2]) | cartilage-like tissue formation in high density pellets (H9 ES-MSC [3]) | cartilage GAGs staining of neo-cartilage tissue (ES-MSC microspheroids) | collagen type II staining of neo-cartilage tissue (ES-MSC microspheroids)
NC(=O)c1ccc(-c2nc(-c3ccc4c(c3)OCO4)c(-c3ccccn3)[nH]2)cc1 [SB431542] | 42 | superior | highly enriched | Increased expression | significantly upregulated | significantly down regulated | higher levels | higher levels | consistently produced cartilage like-tissue |  | 
Cc1cccc(-c2[nH]c(C(C)(C)C)nc2-c2ccc3nccnc3c2)n1 [SB525334] |  |  |  |  |  |  |  |  |  | positive for cartilage GAGs | positive for collagen type II
